This passage reports % of control results from ChEMBL document CHEMBL5465560, “Selectivity Literature for EUbOPEN Chemogenomic Library” (2024).

Test [1] concerns the target T1, Ephrin type-A receptor 1 (Homo sapiens) (UniProt P21709).
T1 sequence (whole entry): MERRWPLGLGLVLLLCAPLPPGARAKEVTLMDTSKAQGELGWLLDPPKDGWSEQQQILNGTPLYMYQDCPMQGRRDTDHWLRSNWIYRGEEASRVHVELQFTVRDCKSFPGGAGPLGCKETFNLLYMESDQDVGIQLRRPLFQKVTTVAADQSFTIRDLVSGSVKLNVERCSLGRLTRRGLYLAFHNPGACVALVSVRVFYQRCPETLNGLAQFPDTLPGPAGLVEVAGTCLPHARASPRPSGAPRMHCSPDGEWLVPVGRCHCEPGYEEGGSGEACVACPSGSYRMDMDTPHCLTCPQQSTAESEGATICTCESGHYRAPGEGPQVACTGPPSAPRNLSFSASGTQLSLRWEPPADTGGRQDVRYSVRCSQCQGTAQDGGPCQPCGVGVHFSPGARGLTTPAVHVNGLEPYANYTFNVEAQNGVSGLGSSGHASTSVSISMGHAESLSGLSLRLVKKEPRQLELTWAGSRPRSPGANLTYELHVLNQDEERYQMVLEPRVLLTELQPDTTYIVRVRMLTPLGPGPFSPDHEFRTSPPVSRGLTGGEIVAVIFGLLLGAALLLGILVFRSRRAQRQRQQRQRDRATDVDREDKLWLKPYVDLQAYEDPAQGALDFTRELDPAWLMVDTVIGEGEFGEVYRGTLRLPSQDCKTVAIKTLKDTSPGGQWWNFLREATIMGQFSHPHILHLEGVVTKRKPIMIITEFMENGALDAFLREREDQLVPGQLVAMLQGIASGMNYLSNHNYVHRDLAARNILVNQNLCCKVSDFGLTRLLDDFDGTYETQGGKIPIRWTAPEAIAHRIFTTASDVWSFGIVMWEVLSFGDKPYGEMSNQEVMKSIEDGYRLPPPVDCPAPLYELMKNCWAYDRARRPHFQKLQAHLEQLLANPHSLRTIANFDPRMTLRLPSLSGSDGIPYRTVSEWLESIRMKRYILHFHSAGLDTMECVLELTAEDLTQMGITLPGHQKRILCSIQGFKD
The experiment in a line: Selectivity interaction (KinomeScan (DiscoverX)) EUB0000045b EPHA1.

For test [2], the target named is Phosphatidylinositol 3-kinase catalytic subunit type 3 (Homo sapiens, UniProt Q8NEB9). In words: Selectivity interaction (ProQinase) EUB0000171b PIK3C3.
Phosphatidylinositol 3-kinase catalytic subunit type 3, sequence (Q8NEB9 whole entry): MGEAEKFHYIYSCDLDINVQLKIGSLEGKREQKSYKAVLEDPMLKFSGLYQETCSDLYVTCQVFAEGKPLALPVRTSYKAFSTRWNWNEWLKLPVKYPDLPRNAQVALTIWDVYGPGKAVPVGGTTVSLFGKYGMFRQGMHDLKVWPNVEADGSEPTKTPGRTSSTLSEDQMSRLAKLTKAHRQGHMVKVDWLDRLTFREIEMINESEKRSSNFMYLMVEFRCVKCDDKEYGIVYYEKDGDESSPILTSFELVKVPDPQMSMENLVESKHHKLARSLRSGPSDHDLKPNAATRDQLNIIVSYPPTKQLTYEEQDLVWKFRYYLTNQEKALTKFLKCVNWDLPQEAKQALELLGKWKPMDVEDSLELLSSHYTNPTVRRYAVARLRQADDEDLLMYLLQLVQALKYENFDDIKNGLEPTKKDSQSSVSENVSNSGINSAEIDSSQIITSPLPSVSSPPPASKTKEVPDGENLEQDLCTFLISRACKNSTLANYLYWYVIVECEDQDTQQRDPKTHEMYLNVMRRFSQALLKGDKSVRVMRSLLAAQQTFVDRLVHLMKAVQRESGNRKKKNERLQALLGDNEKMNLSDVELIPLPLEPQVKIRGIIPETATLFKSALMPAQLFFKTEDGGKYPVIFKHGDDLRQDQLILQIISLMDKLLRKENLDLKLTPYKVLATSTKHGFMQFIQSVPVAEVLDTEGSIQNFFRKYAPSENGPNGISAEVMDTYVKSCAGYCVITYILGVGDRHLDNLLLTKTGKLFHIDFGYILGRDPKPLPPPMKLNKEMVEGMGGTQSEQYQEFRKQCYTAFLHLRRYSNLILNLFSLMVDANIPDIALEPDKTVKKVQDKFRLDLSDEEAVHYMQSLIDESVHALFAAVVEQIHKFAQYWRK
For test [3], the target named is T2, Megakaryocyte-associated tyrosine-protein kinase (Homo sapiens) (UniProt P42679).
T2 sequence (whole entry): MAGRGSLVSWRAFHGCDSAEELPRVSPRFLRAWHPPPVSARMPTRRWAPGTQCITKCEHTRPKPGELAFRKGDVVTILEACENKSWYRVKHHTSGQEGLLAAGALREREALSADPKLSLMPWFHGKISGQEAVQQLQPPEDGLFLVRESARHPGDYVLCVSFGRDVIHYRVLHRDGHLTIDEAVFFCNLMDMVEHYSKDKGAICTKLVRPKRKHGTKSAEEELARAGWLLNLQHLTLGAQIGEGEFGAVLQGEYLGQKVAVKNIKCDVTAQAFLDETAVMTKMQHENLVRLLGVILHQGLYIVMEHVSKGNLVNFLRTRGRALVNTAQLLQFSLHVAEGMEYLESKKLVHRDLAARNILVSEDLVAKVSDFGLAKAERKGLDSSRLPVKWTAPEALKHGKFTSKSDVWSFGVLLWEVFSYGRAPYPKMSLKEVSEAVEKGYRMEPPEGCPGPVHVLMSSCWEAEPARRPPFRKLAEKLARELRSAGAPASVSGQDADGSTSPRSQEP
In words: Selectivity interaction (KinomeScan (DiscoverX)) EUB0001049a MATK. The note with it: at 1 µM.

Test [4] addresses T3, Cyclin-dependent kinase-like 5 (Homo sapiens) (UniProt O76039).
T3 sequence (whole entry): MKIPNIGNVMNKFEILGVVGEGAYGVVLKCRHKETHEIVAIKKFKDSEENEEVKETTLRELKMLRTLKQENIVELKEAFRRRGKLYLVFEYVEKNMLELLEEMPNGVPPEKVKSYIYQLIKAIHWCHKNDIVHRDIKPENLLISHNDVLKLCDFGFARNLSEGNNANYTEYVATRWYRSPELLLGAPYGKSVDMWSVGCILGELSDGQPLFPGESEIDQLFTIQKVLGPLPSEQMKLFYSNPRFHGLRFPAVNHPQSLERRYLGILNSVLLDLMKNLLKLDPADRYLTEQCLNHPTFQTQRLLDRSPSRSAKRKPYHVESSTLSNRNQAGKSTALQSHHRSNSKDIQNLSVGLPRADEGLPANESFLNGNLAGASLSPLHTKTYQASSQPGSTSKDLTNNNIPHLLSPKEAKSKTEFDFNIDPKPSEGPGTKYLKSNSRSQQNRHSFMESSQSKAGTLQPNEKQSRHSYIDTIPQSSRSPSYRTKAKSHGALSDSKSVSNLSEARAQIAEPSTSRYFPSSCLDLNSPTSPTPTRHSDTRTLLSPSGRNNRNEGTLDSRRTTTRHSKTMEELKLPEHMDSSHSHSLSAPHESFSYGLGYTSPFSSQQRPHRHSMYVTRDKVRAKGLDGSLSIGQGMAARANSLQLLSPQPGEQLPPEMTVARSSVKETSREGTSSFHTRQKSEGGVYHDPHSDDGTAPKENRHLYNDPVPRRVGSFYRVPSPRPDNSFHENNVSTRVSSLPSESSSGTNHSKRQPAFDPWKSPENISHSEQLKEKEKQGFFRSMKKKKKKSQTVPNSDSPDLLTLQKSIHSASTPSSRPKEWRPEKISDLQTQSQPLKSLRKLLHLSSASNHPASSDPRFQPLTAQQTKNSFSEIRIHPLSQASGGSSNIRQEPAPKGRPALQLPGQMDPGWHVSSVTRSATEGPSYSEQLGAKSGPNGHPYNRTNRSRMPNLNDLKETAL
The experiment in a line: Selectivity interaction (KinomeScan (DiscoverX)) EUB0000092b CDKL5. As to conditions: at 10 µM.

For `C=CC(=O)Nc1cc(-n2c(=O)ccc3cnc4ccc(-c5ccc(NS(C)(=O)=O)cc5)cc4c32)ccc1C`, the % of control in test [1] (at 1 µM) was 92%; in test [1] (at 10 µM) it was 100%.

For the compound `C=CC(=O)Nc1cccc(C(=O)Nc2ccc(Nc3cc(-c4[nH]c(SC)nc4C)ccn3)cc2)c1`, the values for the % of control in test [2] (at 1 µM) and in test [2] (at 5 µM) were 108% and 103%, respectively.

In test [3], `COc1cc(Nc2nc(C)cc(-c3cnn4nc(OC)ccc34)n2)cc(C(F)(F)F)c1` had a % of control of 100%.

With `CCC(=O)N1CCN(c2ccc(-n3c(=O)ccc4cnc5ccc(-c6cnc7ccccc7c6)cc5c43)cc2C(F)(F)F)CC1`, the % of control in test [4] came out at 100%.
